# Laboratory results as given in paper PMC10855164, “Ligand-Based Design of Selective Peptidomimetic uPA and TMPRSS2 Inhibitors with Arg Bioisosteres” (International Journal of Molecular Sciences, 2024).
# pKi: −log10 of the molar value.
# What was measured:
# matriptase [1] = biological target: T1, matriptase (Homo sapiens, UniProt Q9Y5Y6); test: fluorometric enzyme inhibition assay, matriptase (Boc-Leu-Arg-Arg-AMC); format: biochemical; conditions: quotient Ki matriptase / Ki TMPRSS2, from cited Ki values (ref 29)
# T1 construct: catalytic domain of matriptase (uniport: Q9Y5Y6 aa 596–855); hexa-histidine (N); made in house; host or cells: Escherichia coli BL21 Gold (DE3)
# T1 sequence (Q9Y5Y6 596-855): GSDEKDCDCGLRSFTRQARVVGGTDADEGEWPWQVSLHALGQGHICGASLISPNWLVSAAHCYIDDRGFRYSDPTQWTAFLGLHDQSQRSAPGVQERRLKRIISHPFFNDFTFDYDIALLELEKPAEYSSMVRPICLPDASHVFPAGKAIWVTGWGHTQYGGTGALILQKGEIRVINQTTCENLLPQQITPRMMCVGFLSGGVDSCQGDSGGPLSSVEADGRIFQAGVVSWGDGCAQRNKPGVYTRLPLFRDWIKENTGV
# Procedure: (§1) The inhibitory activity of the synthesized compounds towards the respective main- and off-target proteases was measured via fluorometric and colorimetric assays. Thus, fluorogenic AMC- or colorimetric pNA-based substrates with a peptide sequence suitable for the tested protease were utilized (see Supplementary Figure S2). At first, the compounds were screened against […] proteases (uPA, TMPRSS2, matriptase, tPA, thrombin, factor Xa) at 20 µM, and a cut-off value of 80% inhibition at this concentration was set, for the differentiation between nonactive (n.a.) and active inhibitors. Due to the reversible inhibition mechanism of the ketobenzothiazole derivates, the IC50 values were determined with Graphpad Prism 9, and afterwards converted to the corresponding Ki values for an adequate comparison between the inhibitory activities of the compounds toward all tested proteases. The Ki values were calculated using the Cheng–Prusoff equation [43].
# (§2) Fluorometric inhibition assays
# (§3) The inhibitory activities of the compounds against the proteases were determined by enzyme inhibition assays with fluorogenic or colorimetry-based substrates. The fluorescence, caused by cleaved AMC from the fluorogenic substrates (uPA, matriptase, TMPRSS2, thrombin), was measured in white flat-bottom 96-well plates from Greiner Bio-One using a Tecan Infinite F200 Pro plate reader. The absorption, caused by cleaved pNA from colorimetric substrates (factor Xa and tPA), was measured in transparent flat-bottom 96-well plates from Greiner Bio-One using a Tecan Spark 10M plate reader. All measurements with the main-target proteases (uPA and TMRPSS2) were performed as triplicates and with the off-target proteases (matriptase, factor Xa, tPA, thrombin) as duplicates. The substrates and the compounds were prepared as stock solutions in DMSO. Each well contained a total volume of 200 µL, consisting of 185 µL buffer, 5 µL inhibitor in DMSO or pure DMSO as negative control, 5 µL substrate in DMSO and 5 µL enzyme solution in buffer. Dilution series were prepared for the determination of the inhibition constants. The fluorescence signal and absorbance were measured every 30 s for 10 min at 25 or 37 °C with the corresponding excitation/emission (λex = 380 nm / λem = 460 nm) and absorbance (λabs = 405 nm) wavelengths, depending on the targeted protease. IC50 values for the reversible inhibitors were calculated with Graphpad Prism 9 by fitting the remaining enzymatic activity to the four parameter IC50 equation with Y [%] as the residual enzyme activity , Ymax as the maximum value of the dose response curve at inhibitor concentrations [I] = 0 µM, Ymin as the minimum value at high inhibitor concentrations and s as the hill coefficient.[1] The fluorescence progress curves and sigmoidal dose-response curve for inhibition of uPa by compound 38 is shown exemplary in Figure S2. […]
# (§4) Due to the dependence of the IC50 value on the substrate affinity and concentration, the Ki values were calculated with the Cheng-Prusoff equation, using the final substrate concentration [S] and the Michaelis-Menten constant KM, (2) for appropriate comparison of the inhibitory activities to the other enzymes and inhibitors.[1]
# (§5) KM values were determined by fitting to the Michaelis-Menten equation using Graphpad Prism 9 with v [ΔF/min] as the substrate hydrolysis rate, vmax as the maximum slope of the dose-response curve, and the substrate [S] concentration.[1] The different substrates were serially diluted in DMSO. The measurement was done in analogy to the determination of the inhibitory activity, but with 5 µL pure DMSO instead of inhibitor solution. […]
# (§6) The following buffers and substrates were used for the respective assays: uPA (50 mM Tris HCl pH = 7.9, 150 mM […]
# (§7) TMPRSS2 (25 mM Tris HCl pH = 8.0, 150 mM NaCl, 5 mM CaCl2, 0.001% TX-100, 100 µM Boc-Gln-Ala-Arg-AMC (KM: 68.63 ± 6.64 µM), 25 °C, 3 nM TMPRSS2)[3]; matriptase (50 mM Tris HCl pH = 8.0, 150 mM NaCl, 5 mM CaCl2, […]
# TMPRSS2 = biological target: T2, TMPRSS2 (Homo sapiens, UniProt O15393); parameters: method as in PMID 35804152; conditions: published inhibitor; cited from earlier work
# T2 construct: purchased Cusabio
# factor Xa [2] = biological target: T3, factor Xa (Homo sapiens, UniProt P00742); test: colorimetric enzyme inhibition assay, factor Xa (Z-D-Arg-Gly-Arg-pNA); format: biochemical; conditions: quotient Ki factor Xa / Ki TMPRSS2, from cited Ki values (ref 29)
# T3 construct: purchased Bio-techne
# Procedure: as §1, §2, §3, §4, §5, §6, §7
# factor Xa [3] = biological target: T3, factor Xa; parameters: method as in PMID 35804152; conditions: published inhibitor; cited from earlier work
# matriptase [4] = biological target: T1, matriptase; parameters: method as in PMID 35804152; conditions: published inhibitor; cited from earlier work
# thrombin [5] = biological target: T4, thrombin (Homo sapiens, UniProt P00734); parameters: method as in PMID 35804152; conditions: published inhibitor; cited from earlier work
# T4 construct: purchased Bio-techne
# thrombin [6] = biological target: T4, thrombin; test: fluorometric enzyme inhibition assay, thrombin (Z-Gly-Gly-Arg-AMC); format: biochemical; conditions: quotient Ki thrombin / Ki TMPRSS2, from cited Ki values (ref 29)
# Procedure: as §1, §2, §3, §4, §5, §6, §7
# T3 sequence (P00742 235-488 limits assumed): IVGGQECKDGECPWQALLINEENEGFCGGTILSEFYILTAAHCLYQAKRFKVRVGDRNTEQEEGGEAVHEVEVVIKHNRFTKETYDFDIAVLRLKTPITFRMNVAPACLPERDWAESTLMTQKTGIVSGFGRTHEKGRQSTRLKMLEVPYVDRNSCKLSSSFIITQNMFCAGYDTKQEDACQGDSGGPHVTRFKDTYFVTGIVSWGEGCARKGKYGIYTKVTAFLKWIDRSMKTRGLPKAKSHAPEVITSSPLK
# T3 sequence (P00742 41-179 partner limits assumed): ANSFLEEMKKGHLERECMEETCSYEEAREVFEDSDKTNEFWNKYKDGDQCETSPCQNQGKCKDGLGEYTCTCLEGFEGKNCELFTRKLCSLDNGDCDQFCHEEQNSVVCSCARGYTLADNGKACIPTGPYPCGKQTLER
# T2 sequence (O15393 whole entry): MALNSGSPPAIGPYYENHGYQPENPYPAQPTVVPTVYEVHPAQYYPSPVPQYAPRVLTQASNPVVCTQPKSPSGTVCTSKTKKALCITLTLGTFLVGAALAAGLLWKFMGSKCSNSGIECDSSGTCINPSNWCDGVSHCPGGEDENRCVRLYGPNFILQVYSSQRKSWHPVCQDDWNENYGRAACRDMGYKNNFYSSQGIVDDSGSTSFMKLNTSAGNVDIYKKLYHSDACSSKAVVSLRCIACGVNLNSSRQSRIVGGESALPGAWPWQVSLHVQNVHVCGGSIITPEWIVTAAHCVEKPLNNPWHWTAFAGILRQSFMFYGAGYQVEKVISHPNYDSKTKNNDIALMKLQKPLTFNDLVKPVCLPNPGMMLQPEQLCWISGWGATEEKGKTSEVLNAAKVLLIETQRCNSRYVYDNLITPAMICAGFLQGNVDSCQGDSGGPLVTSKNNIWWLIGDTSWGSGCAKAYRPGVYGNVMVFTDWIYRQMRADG
smiles,measurement,setting,value
CC(=O)N[C@@H](CC(N)=O)C(=O)N1CCC[C@H]1C(=O)N[C@@H](CCCNC(=N)N)C(=O)c1nc2ccccc2s1 [Ac-L-Asn-L-Pro-L-Arg-kbt],Selectivity index [SI] Matriptase,matriptase [1],2
same,pKi,TMPRSS2,8.60
same,Selectivity index [SI] Factor Xa,factor Xa [2],16
same,pKi,factor Xa [3],7.39
same,pKi,matriptase [4],8.28
same,pKi,thrombin [5],5.98
same,Selectivity index [SI] Thrombin,thrombin [6],418
